According to PubChem BioAssay AID248 (DTP/NCI, 2004):
Values joined by “and” are separate entries in the source; they are usually repeats but may differ in a detail not shown here. Identical values can stand only once. Toxic doses and inconclusive results are not listed. No stated cut-off is given here; in the data, active means T/C of 150% or more; inactive means T/C below 125%.

System: L1210 leukemia ip in BDF1 mice, survival T/C
Assay: NCI In Vivo Anticancer Drug Screen. Data for tumor model L1210 Leukemia (intraperitoneal) in B6D2F1 (BDF1) mice
Conditions: endpoint: mean survival time, higher = longer survival
In short: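 Ratio derived from survival: compound-dosed mice over vehicle-dosed mice, all bearing a transplantable tumor.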

[1] = dose: 100.0 mg/kg/injection, schedule: Q01DX001 (ip), vehicle: saline with Tween-80
[2] = dose: 200.0 mg/kg/injection, schedule: Q01DX001 (ip), vehicle: saline with Tween-80
[3] = dose: 400.0 mg/kg/injection, schedule: Q01DX001 (ip), vehicle: saline with Tween-80
[4] = dose: 100.0 mg/kg/injection, schedule: Q01DX009 (ip), vehicle: saline with Tween-80
[5] = dose: 200.0 mg/kg/injection, schedule: Q01DX009 (ip), vehicle: saline with Tween-80
[6] = dose: 400.0 mg/kg/injection, schedule: Q01DX009 (ip), vehicle: saline with Tween-80

Measured: T/C

N=c1ccccn1C(=O)C1=Cc2ccccc2OC1
inactive: [1] 103 % of control | [2] 100 % of control | [3] 96 % of control

Ic1nc(I)c(I)[nH]1
inactive: [4] 102 % of control | [5] 105 % of control | [6] 102 % of control

CC12CCC(CC1)C2CO (stereo not drawn)
inactive: dose: 50.0 mg/kg/injection, schedule: Q01DX009 (ip), vehicle: saline with Tween-80 105 % of control | [4] 98 % of control

CC#CCOCC(O)CCl (stereo not drawn)
inactive: dose: 100.0 mg/kg/injection, schedule: Q01DX009 (ip), vehicle: saline 94 % of control | dose: 100.0 mg/kg/injection, schedule: Q04DX003 (ip), vehicle: saline sonified 108 % of control | dose: 200.0 mg/kg/injection, schedule: Q01DX009 (ip), vehicle: saline 91 % of control | dose: 200.0 mg/kg/injection, schedule: Q04DX003 (ip), vehicle: saline sonified 103 % of control | dose: 400.0 mg/kg/injection, schedule: Q01DX009 (ip), vehicle: saline 105 % of control | dose: 400.0 mg/kg/injection, schedule: Q04DX003 (ip), vehicle: saline sonified 117 % of control

CCCCCCCCCCCCCCCCCC[N+]1(CC)CCOCC1
inactive: dose: 3.13 mg/kg/injection, schedule: Q04DX002 (ip), vehicle: carboxymethylcellulose (CMC) 103 % of control and 87 % of control | dose: 6.25 mg/kg/injection, schedule: Q01DX001 (ip), vehicle: carboxymethylcellulose (CMC) 101 % of control | dose: 6.25 mg/kg/injection, schedule: Q01DX009 (ip), vehicle: carboxymethylcellulose (CMC) 93 % of control and 95 % of control | dose: 6.25 mg/kg/injection, schedule: Q04DX002 (ip), vehicle: carboxymethylcellulose (CMC) 100 % of control and 92 % of control | dose: 6.25 mg/kg/injection, schedule: Q04DX003 (ip), vehicle: carboxymethylcellulose (CMC) 98 % of control | dose: 12.5 mg/kg/injection, schedule: Q01DX001 (ip), vehicle: carboxymethylcellulose (CMC) 94 % of control | dose: 12.5 mg/kg/injection, schedule: Q01DX009 (ip), vehicle: carboxymethylcellulose (CMC) 93 % of control and 89 % of control | dose: 12.5 mg/kg/injection, schedule: Q04DX003 (ip), vehicle: carboxymethylcellulose (CMC) 100 % of control | dose: 25.0 mg/kg/injection, schedule: Q01DX001 (ip), vehicle: carboxymethylcellulose (CMC) 90 % of control | dose: 25.0 mg/kg/injection, schedule: Q04DX002 (ip), vehicle: carboxymethylcellulose (CMC) 94 % of control and 92 % of control | dose: 25.0 mg/kg/injection, schedule: Q04DX003 (ip), vehicle: carboxymethylcellulose (CMC) 89 % of control

CCCCCOC(=O)Nc1ccc(S(=O)(=O)N(C)C)cc1
inactive: dose: 100.0 mg/kg/injection, schedule: Q01DX001 (ip), vehicle: saline 100 % of control | dose: 200.0 mg/kg/injection, schedule: Q01DX001 (ip), vehicle: saline 108 % of control | dose: 400.0 mg/kg/injection, schedule: Q01DX001 (ip), vehicle: saline 100 % of control

Nc1nnnc2c1ncn2C1OC(CO)C(O)C1O (stereo not drawn)
inactive: dose: 1.6 mg/kg/injection, schedule: Q01DX009 (ip), vehicle: saline 120 % of control | dose: 2.8 mg/kg/injection, schedule: Q01DX009 (ip), vehicle: saline 108 % of control | dose: 4.8 mg/kg/injection, schedule: Q01DX009 (ip), vehicle: saline 117 % of control | dose: 9.5 mg/kg/injection, schedule: Q01DX001 (ip), vehicle: saline 106 % of control | dose: 12.5 mg/kg/injection, schedule: Q04DX002 (ip), vehicle: saline 92 % of control | dose: 14.0 mg/kg/injection, schedule: Q01DX009 (ip), vehicle: saline 123 % of control | dose: 19.0 mg/kg/injection, schedule: Q01DX001 (ip), vehicle: saline 103 % of control and 117 % of control | dose: 25.0 mg/kg/injection, schedule: Q04DX002 (ip), vehicle: saline 100 % of control | dose: 38.0 mg/kg/injection, schedule: Q01DX001 (ip), vehicle: saline 106 % of control and 120 % of control | dose: 38.0 mg/kg/injection, schedule: Q01DX009 (ip), vehicle: saline 105 % of control | dose: 50.0 mg/kg/injection, schedule: Q04DX002 (ip), vehicle: saline 103 % of control | dose: 75.0 mg/kg/injection, schedule: Q01DX001 (ip), vehicle: saline 106 % of control

CN(C)C(=O)C1CCC1
inactive: [4] 91 % of control | dose: 100.0 mg/kg/injection, schedule: Q04DX003 (ip), vehicle: saline with Tween-80 103 % of control | [5] 105 % of control | dose: 200.0 mg/kg/injection, schedule: Q04DX003 (ip), vehicle: saline with Tween-80 101 % of control | [6] 100 % of control | dose: 400.0 mg/kg/injection, schedule: Q04DX003 (ip), vehicle: saline with Tween-80 104 % of control

O=C1C(SCCO)=C(SCCO)C(=O)c2[nH]cnc21
inactive: dose: 5.0 mg/kg/injection, schedule: Q01DX001 (ip), vehicle: carboxymethylcellulose (CMC) 100 % of control | dose: 10.0 mg/kg/injection, schedule: Q01DX001 (ip), vehicle: carboxymethylcellulose (CMC) 101 % of control | dose: 20.0 mg/kg/injection, schedule: Q01DX001 (ip), vehicle: carboxymethylcellulose (CMC) 100 % of control | dose: 40.0 mg/kg/injection, schedule: Q01DX001 (ip), vehicle: carboxymethylcellulose (CMC) 104 % of control

COCCOC(=O)Cc1cccc2ccccc12
inactive: dose: 222.0 mg/kg/injection, schedule: Q01DX Z (ip), vehicle: saline 90 % of control | dose: 333.0 mg/kg/injection, schedule: Q01DX Z (ip), vehicle: saline 100 % of control | dose: 500.0 mg/kg/injection, schedule: Q01DX Z (ip), vehicle: saline 110 % of control

O=C1NN(c2ccccc2)CCO1
inactive: dose: 100.0 mg/kg/injection, schedule: Q01DX009 (ip), vehicle: Klucel (hydroxypropylcellulose) (HPC) 100 % of control | dose: 200.0 mg/kg/injection, schedule: Q01DX009 (ip), vehicle: Klucel (hydroxypropylcellulose) (HPC) 93 % of control

CCOC(C)C1C2CCCC(C)C21 (stereo not drawn)
inactive: dose: 100.0 mg/kg/injection, schedule: Q04DX003 (ip), vehicle: saline 102 % of control | dose: 200.0 mg/kg/injection, schedule: Q04DX003 (ip), vehicle: saline 96 % of control | dose: 400.0 mg/kg/injection, schedule: Q04DX003 (ip), vehicle: saline 93 % of control

O=C(CC(O)(C(F)(F)F)C(F)(F)F)c1ccc(Cl)c([N+](=O)[O-])c1
inactive: dose: 75.0 mg/kg/injection, schedule: Q01DX009 (ip), vehicle: Klucel (hydroxypropylcellulose) (HPC) 102 % of control | dose: 150.0 mg/kg/injection, schedule: Q01DX009 (ip), vehicle: Klucel (hydroxypropylcellulose) (HPC) 100 % of control

CN(C)c1ccc(/C=C/c2cc(N(C)C)nc3ccccc23)cc1
inactive: dose: 25.0 mg/kg/injection, schedule: Q01DX015 (ip), vehicle: carboxymethylcellulose (CMC) 109 % of control | dose: 50.0 mg/kg/injection, schedule: Q01DX015 (ip), vehicle: carboxymethylcellulose (CMC) 105 % of control | dose: 75.0 mg/kg/injection, schedule: Q01DX015 (ip), vehicle: carboxymethylcellulose (CMC) 101 % of control

O=C(COc1cccc(Cl)c1Cl)Nc1ccc[n+](Cc2ccc(S(=O)(=O)F)cc2)c1
inactive: dose: 100.0 mg/kg/injection, schedule: Q04DX003 (ip), vehicle: Klucel (hydroxypropylcellulose) (HPC) 104 % of control | dose: 200.0 mg/kg/injection, schedule: Q04DX003 (ip), vehicle: Klucel (hydroxypropylcellulose) (HPC) 100 % of control

CCSc1ncnc2c1nnn2C1OC(CO)C(O)C1O (stereo not drawn)
inactive: dose: 12.5 mg/kg/injection, schedule: Q01DX001 (ip), vehicle: saline with Tween-80 100 % of control | dose: 25.0 mg/kg/injection, schedule: Q01DX001 (ip), vehicle: saline with Tween-80 102 % of control | dose: 50.0 mg/kg/injection, schedule: Q01DX001 (ip), vehicle: saline with Tween-80 97 % of control | [1] 103 % of control | [2] 108 % of control

Nc1ncnc(N)c1NC(=O)c1cccc(F)c1
inactive: [1] 106 % of control | [2] 101 % of control | [3] 102 % of control
